Experimental data reported in patent US20080227819A1, “Method for identifying the agonistic activity of a target compound on a potassium channel” (Gruenenthal GmbH, priority 2007, published 2008).

What was measured:
Type in all cases: cell-based
[1] = biological target: T1, KCNQ2 channels and KCNQ3 channels (Homo sapiens, UniProt O43525+O43526); assay: ion jump assay format for searching for potassium channel blockers (potassium injection to extracellular medium); settings: KCl final concentration 91.8 mM, FIG. 3
T1 construct: expressed in transfected cells; host or cells: CHO cells (Chinese hamster ovary cells)
Protocol: FIG. 3: Influence of XE991 on the fluorescence response after potassium injection to the extracellular medium in a ion jump assay format for searching for potassium channel blockers. The time response of the fluorescence intensity of CHO cells expressing the KCNQ channels before and after the application (arrow) of […] potassium chloride is depicted.
The seeding of KCNQ-expressing cells in assay plates, the loading with the dye and the measurement devices to be used as well as the wavelengths to be set are in accordance with Example 1. […] Then the base line was monitored in the fluorescence reader for 3-4 min and the fluorescence values were measured for 10 min after the injection of 15 μl of a KCl solution (final concentration 91.8 mM) in each cavity of the plate.
In FIG. 3 the time response of the fluorescence intensity of CHO cells expressing the KCNQ channels before and after the application (arrow) of 91.8 mM potassium chloride is depicted. The fluorescence responses of the cells in the absence (Δ) and presence (▪) of the known KCNQ channel blocker XE991 (60 μM) are shown. The percental change in the fluorescence intensity (ΔF/F) based on the averaged fluorescence intensity before the potassium application is depicted.

[2] = biological target: T1, KCNQ2 channels and KCNQ3 channels; assay: depolarisation assay format, voltage-sensitive fluorescent dye, CHO cells expressing KCNQ channels; settings: saturating concentration of XE991 (60 μM), ΔF/F, control cells subtracted, FIG. 1
Protocol: FIG. 1: Effect of XE991 on the membrane potential of cells expressing KCNQ channels in a depolarisation assay format. The time response of the fluorescence intensity of CHO cells expressing KCNQ channels before and after the application (arrow) of a known KCNQ channel blocker (XE991, 60 μM) is depicted.
CHO cells (Chinese hamster ovary cells) expressing KCNQ2 channels and KCNQ3 channels were adherently cultivated in a nutrient medium [Minimum Essential Medium (MEM), α medium 22571 1×liquid (Invitrogen), 10% Fetal Calf Serum (FCS) (Gibco, heat inactivated), including selection antibiotics] at 37° C., 5% CO2 and 95% air humidity in cell culture bottles. […] After incubation with the dye, either 50 μl ES (control) or 50 μl of the KCNQ channel blocker XE991 in independent wells in a saturating concentration (final concentration 60 μM) were added and incubated for […] with concurrent monitoring of the fluorescence in the reader. The measurements were carried out by a Fluostar or Polarstar fluorescence reader of the company BMG or the FlexStation of the company Molecular Devices. It was excited at a wavelength of 525 nm and detected at a wavelength of 560 nm.
In FIG. 1 the time response of the fluorescence intensity of CHO cells expressing KCNQ channels before and after the application (arrow) of a known KCNQ channel blocker (XE991) is depicted. […]

[3] = biological target: T1, KCNQ2 channels and KCNQ3 channels; assay: hyperpolarisation assay format, voltage-sensitive fluorescent dye, CHO cells expressing KCNQ channels; settings: retigabine 30 μM, ΔF/F, control cells subtracted, FIG. 2
Protocol: FIG. 2: Effect of retigabine on the membrane potential of cells expressing KCNQ channels in a hyperpolarisation assay format. The time response of the fluorescence intensity in CHO cells expressing KCNQ channels before and after the application (arrow) of a known KCNQ channel opener (retigabine, 30 μM) is depicted.
The cells were seeded into assay plates and loaded with the dye in exactly the same way as described in Example 1. The measurements were carried out by a Fluostar or Polarstar fluorescence reader of the company BMG or the FlexStation of the company Molecular Devices. It was excited at a wavelength of 525 nm and detected at a wavelength of 560 nm. After incubation with the dye, the base line was monitored for 5 min. Then either 50 up ES buffer (control) or 50 μl of the KCNQ agonist retigabine (30 μM) were added and the fluorescence was monitored in an appropriate reader for 7.5 min.
In FIG. 2 the time response of the fluorescence intensity of CHO cells expressing KCNQ channels before and after the application (arrow) of the known KCNQ channel opener (retigabine, 30 μM) is depicted. The percental change in the fluorescence intensity (ΔF/F) based on the averaged fluorescence intensity before the application of retigabine is depicted. The course of the fluorescence of the control cells (application of buffer) was subtracted from the retigabine-induced fluorescence signal.

T1 sequence (O43525 whole entry): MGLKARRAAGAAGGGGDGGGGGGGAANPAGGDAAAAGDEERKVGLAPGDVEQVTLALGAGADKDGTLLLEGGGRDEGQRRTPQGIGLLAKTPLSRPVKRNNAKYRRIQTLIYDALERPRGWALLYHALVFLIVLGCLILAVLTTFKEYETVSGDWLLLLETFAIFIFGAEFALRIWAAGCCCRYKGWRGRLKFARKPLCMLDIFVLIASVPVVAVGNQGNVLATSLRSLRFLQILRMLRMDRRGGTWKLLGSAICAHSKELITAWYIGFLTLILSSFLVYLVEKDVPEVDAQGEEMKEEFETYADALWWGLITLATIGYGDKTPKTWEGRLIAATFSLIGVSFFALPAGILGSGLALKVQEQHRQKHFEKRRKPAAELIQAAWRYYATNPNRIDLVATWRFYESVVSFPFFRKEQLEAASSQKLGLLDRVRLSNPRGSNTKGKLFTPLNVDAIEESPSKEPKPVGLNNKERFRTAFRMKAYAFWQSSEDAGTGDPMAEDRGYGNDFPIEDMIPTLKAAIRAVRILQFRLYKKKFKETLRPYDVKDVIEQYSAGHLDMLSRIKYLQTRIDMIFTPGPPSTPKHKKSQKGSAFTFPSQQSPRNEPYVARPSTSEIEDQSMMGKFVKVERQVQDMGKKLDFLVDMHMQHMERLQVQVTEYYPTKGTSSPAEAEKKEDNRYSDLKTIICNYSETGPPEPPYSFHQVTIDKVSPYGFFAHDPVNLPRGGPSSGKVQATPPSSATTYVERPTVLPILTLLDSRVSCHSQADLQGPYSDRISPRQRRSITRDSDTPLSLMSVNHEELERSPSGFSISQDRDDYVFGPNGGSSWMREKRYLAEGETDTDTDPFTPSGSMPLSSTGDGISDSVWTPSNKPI
T1 sequence (O43526 whole entry): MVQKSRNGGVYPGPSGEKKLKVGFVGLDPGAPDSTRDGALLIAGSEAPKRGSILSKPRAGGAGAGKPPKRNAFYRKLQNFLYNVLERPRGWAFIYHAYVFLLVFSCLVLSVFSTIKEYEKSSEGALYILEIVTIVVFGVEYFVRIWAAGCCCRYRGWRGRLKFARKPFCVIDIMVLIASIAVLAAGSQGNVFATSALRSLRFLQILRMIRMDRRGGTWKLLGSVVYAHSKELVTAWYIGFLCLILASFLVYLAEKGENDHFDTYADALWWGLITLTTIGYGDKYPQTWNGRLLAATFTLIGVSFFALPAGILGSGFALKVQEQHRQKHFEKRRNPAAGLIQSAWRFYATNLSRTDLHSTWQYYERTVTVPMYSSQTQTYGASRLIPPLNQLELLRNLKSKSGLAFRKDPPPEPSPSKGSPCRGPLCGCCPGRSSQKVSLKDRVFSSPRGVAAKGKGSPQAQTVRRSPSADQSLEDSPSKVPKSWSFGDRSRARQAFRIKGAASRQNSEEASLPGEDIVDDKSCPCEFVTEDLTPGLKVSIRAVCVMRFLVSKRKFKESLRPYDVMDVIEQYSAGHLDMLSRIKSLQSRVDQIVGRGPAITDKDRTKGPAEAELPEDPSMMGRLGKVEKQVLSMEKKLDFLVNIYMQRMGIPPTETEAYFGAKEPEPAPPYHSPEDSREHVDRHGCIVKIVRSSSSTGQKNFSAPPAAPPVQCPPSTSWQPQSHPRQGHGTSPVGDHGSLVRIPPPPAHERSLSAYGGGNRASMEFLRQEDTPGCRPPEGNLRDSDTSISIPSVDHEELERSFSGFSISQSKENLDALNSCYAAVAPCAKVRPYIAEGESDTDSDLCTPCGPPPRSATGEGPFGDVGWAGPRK

O=C1c2ccccc2C(Cc2ccncc2)(Cc2ccncc2)c2ccccc21 [XE991]
difference of the amplitudes of the fluorescence responses in the presence and in the absence of a KCNQ channel blocker (dynamic range of the assay) ([1]; XE991 60 μM vs control cells): about 80%
fluorescence response after the potassium application in the presence of the blocker ([1]; saturating concentration of XE991 (60 μM), 30 min, control cells show increase by about 80%): no increase in the fluorescence
increase in the fluorescence intensity after application of the KCNQ channel blocker [2]: about 55%

CCOC(=O)Nc1ccc(NCc2ccc(F)cc2)cc1N [retigabine]
decrease in the fluorescence intensity after application of retigabine [3]: 35-40%
